# Counter-ions that a name gives are not always drawn.
# Biological target: T1, BACE-2 (Homo sapiens, UniProt Q9Y5Z0)
# T1 construct: Recombinant BACE-2 (extracellular domain, expressed in baculovirus and purified using standard methods); made in house
# T1 sequence (Q9Y5Z0 63-473 limits assumed): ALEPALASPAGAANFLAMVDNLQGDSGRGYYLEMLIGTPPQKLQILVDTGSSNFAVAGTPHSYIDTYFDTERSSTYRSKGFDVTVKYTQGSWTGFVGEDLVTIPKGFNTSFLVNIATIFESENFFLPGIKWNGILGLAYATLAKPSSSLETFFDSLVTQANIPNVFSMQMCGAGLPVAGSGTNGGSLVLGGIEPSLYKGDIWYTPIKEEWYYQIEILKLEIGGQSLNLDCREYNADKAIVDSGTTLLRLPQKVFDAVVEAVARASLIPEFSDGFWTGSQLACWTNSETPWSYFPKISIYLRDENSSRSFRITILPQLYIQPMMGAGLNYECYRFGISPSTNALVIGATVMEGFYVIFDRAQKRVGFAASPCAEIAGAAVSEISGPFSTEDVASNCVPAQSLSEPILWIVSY
# Assay: assay for inhibition of BACE-2
# Type: biochemical
row,Structure (SMILES),IC50 [nM]
1,"NC1=N[C@@](c2cc(NC(=O)c3cc4cccn4cn3)ccc2F)(C(F)F)COC1 [Example 163, Pyrrolo[1,2-c]pyrimidine-3-carboxylic acid [3-((R)-5-amino-3-difluoromethyl-3,6-dihydro-2H-[1,4]oxazin-3-yl)-4-fluoro-phenyl]-amide]",405
2,"CC#CCOc1cnc(C(=O)Nc2ccc(F)c([C@]3(C(F)F)COCC(N)=N3)c2)cn1 [Example 164, 5-But-2-ynyloxy-pyrazine-2-carboxylic acid [3-((R)-5-amino-3-difluoromethyl-3,6-dihydro-2H-[1,4]oxazin-3-yl)-4-fluoro-phenyl]-amide hydrochloride]",76
3,"NC1=N[C@@](c2cc(NC(=O)c3ncc(Br)cc3N)ccc2F)(C(F)F)COC1 [Example 165, 3-Amino-5-bromo-pyridine-2-carboxylic acid [3-((R)-5-amino-3-difluoromethyl-3,6-dihydro-2H-[1,4]oxazin-3-yl)-4-fluoro-phenyl]-amide hydrochloride]",5
4,"CCn1ccnc1C(=O)Nc1ccc(F)c([C@]2(C(F)F)COCC(N)=N2)c1 [Example 166, 1-Ethyl-1H-imidazole-2-carboxylic acid [3-((R)-5-amino-3-difluoromethyl-3,6-dihydro-2H-[1,4]oxazin-3-yl)-4-fluoro-phenyl]-amide hydrochloride]",378
5,"C#CCOc1cnc(C(=O)Nc2ccc(F)c([C@]3(C(F)F)COCC(N)=N3)c2)cn1 [Example 167, 5-Prop-2-ynyloxy-pyrazine-2-carboxylic acid [3-((R)-5-amino-3-difluoromethyl-3,6-dihydro-2H-[1,4]oxazin-3-yl)-4-fluoro-phenyl]-amide hydrochloride]",172
6,"Cc1nc(C(=O)Nc2ccc(F)c([C@]3(C(F)F)COCC(N)=N3)c2)c(N)o1 [Example 168, 5-Amino-2-methyl-oxazole-4-carboxylic acid [3-((R)-5-amino-3-difluoromethyl-3,6-dihydro-2H-[1,4]oxazin-3-yl)-4-fluoro-phenyl]-amide hydrochloride]",35
7,"CC(C)Oc1cnc(C(=O)Nc2ccc(F)c([C@]3(C(F)F)COCC(N)=N3)c2)cn1 [Example 170, 5-Isopropoxy-pyrazine-2-carboxylic acid [3-((R)-5-amino-3-difluoromethyl-3,6-dihydro-2H-[1,4]oxazin-3-yl)-4-fluoro-phenyl]-amide]",2710
8,"CCOc1cnc(C(=O)Nc2ccc(F)c([C@]3(C(F)F)COCC(N)=N3)c2)cn1 [Example 171, 5-Ethoxy-pyrazine-2-carboxylic acid [3-((R)-5-amino-3-difluoromethyl-3,6-dihydro-2H-[1,4]oxazin-3-yl)-4-fluoro-phenyl]-amide]",200
9,"Cc1c(C(=O)Nc2ccc(F)c([C@]3(C(F)F)COCC(N)=N3)c2)oc2ccc(CN(C)C)cc12 [Example 172, 5-Dimethylaminomethyl-3-methyl-benzofuran-2-carboxylic acid [3-((R)-5-amino-3-difluoromethyl-3,6-dihydro-2H-[1,4]oxazin-3-yl)-4-fluoro-phenyl]-amide hydrochloride]",7
10,"Cc1c(C(=O)Nc2ccc(F)c([C@]3(C(F)F)COCC(N)=N3)c2)nnn1C [Example 173, 1,5-Dimethyl-1H-[1,2,3]triazole-4-carboxylic acid [3-((R)-5-amino-3-difluoromethyl-3,6-dihydro-2H-[1,4]oxazin-3-yl)-4-fluoro-phenyl]-amide hydrochloride]",> 10000
11,"COc1cnc(C(=O)Nc2ccc(F)c([C@]3(C(F)F)COCC(N)=N3)c2)c(C)n1 [Example 174, 5-Methoxy-3-methyl-pyrazine-2-carboxylic acid [3-((R)-5-amino-3-difluoromethyl-3,6-dihydro-2H-[1,4]oxazin-3-yl)-4-fluoro-phenyl]-amide hydrochloride]",276
12,"COc1cnc(C(=O)Nc2ccc(F)c([C@]3(C(F)F)COCC(N)=N3)c2)c(N)n1 [Example 175, 3-Amino-5-methoxy-pyrazine-2-carboxylic acid [3-((R)-5-amino-3-difluoromethyl-3,6-dihydro-2H-[1,4]oxazin-3-yl)-4-fluoro-phenyl]-amide hydrochloride]",111
13,"Cc1cc(OC(F)F)cnc1C(=O)Nc1ccc(F)c([C@]2(C(F)F)COCC(N)=N2)c1 [Example 176, 5-Difluoromethoxy-3-methyl-pyridine-2-carboxylic acid [3-((R)-5-amino-3-difluoromethyl-3,6-dihydro-2H-[1,4]oxazin-3-yl)-4-fluoro-phenyl]-amide hydrochloride]",183
14,"COc1cnc(C(=O)Nc2ccc(F)c([C@]3(C(F)F)COCC(N)=N3)c2)c(OC)c1 [Example 179, 3,5-Dimethoxy-pyridine-2-carboxylic acid [3-((R)-5-amino-3-difluoromethyl-3,6-dihydro-2H-[1,4]oxazin-3-yl)-4-fluoro-phenyl]-amide hydrochloride]",270
15,"COCCOc1ccc(C(=O)Nc2ccc(F)c([C@]3(C(F)F)COCC(N)=N3)c2)nc1 [Example 180, 5-(2-Methoxy-ethoxy)-pyridine-2-carboxylic acid [3-((R)-5-amino-3-difluoromethyl-3,6-dihydro-2H-[1,4]oxazin-3-yl)-4-fluoro-phenyl]-amide hydrochloride]",1650
16,"NC1=N[C@@](c2cc(NC(=O)c3ncc(OC(F)F)cc3Cl)ccc2F)(C(F)F)COC1 [Example 185, 3-Chloro-5-difluoromethoxy-pyridine-2-carboxylic acid [3-((R)-5-amino-3-difluoromethyl-3,6-dihydro-2H-[1,4]oxazin-3-yl)-4-fluoro-phenyl]-amide hydrochloride]",199
17,"CN1CC(N)=NC(C)(c2cc(NC(=O)c3ccc(Br)cn3)ccc2F)C1=O (stereo not drawn) [Example 186, 5-Bromo-pyridine-2-carboxylic acid [3-(6-amino-2,4-dimethyl-3-oxo-2,3,4,5-tetrahydro-pyrazin-2-yl)-4-fluoro-phenyl]-amide]",9110
18,"CN1CC(N)=NC(C)(c2cc(NC(=O)c3ccc(Br)cn3)ccc2F)C1 (stereo not drawn) [Example 187, 5-Bromo-pyridine-2-carboxylic acid [3-(6-amino-2,4-dimethyl-2,3,4,5-tetrahydro-pyrazin-2-yl)-4-fluoro-phenyl]-amide]",104

# The next lines start with the values.
row,IC50 [nM],Structure (SMILES)
1,82,"COc1cnc(C(=O)Nc2ccc(F)c([C@]3(C(F)F)COCC(N)=N3)c2)c(Cl)c1 [Example 161, 3-Chloro-5-methoxy-pyridine-2-carboxylic acid [3-((R)-5-amino-3-difluoromethyl-3,6-dihydro-2H-[1,4]oxazin-3-yl)-4-fluoro-phenyl]-amide]"
2,> 10000,"NC1=N[C@@](c2cc(NC(=O)c3ccc(=O)[nH]c3)ccc2F)(C(F)F)COC1 [Example 162, 6-Oxo-1,6-dihydro-pyridine-3-carboxylic acid [3-((R)-5-amino-3-difluoromethyl-3,6-dihydro-2H-[1,4]oxazin-3-yl)-4-fluoro-phenyl]-amide hydrochloride]"
3,4,"NC1=N[C@@](c2cc(NC(=O)c3ncc(Cl)cc3O)ccc2F)(C(F)F)COC1 [Example 169, 5-Chloro-3-hydroxy-pyridine-2-carboxylic acid [3-((R)-5-amino-3-difluoromethyl-3,6-dihydro-2H-[1,4]oxazin-3-yl)-4-fluoro-phenyl]-amide]"
4,37,"Cc1cc(OCF)cnc1C(=O)Nc1ccc(F)c([C@]2(C(F)F)COCC(N)=N2)c1 [Example 177, 5-Fluoromethoxy-3-methyl-pyridine-2-carboxylic acid [3-((R)-5-amino-3-difluoromethyl-3,6-dihydro-2H-[1,4]oxazin-3-yl)-4-fluoro-phenyl]-amide hydrochloride]"
5,2960,"COCCOc1cnc(C(=O)Nc2ccc(F)c([C@]3(C(F)F)COCC(N)=N3)c2)c(C)n1 [Example 178, 5-(2-Methoxy-ethoxy)-3-methyl-pyrazine-2-carboxylic acid [3-((R)-5-amino-3-difluoromethyl-3,6-dihydro-2H-[1,4]oxazin-3-yl)-4-fluoro-phenyl]-amide hydrochloride]"
6,6080,"COCCOc1cnc(C(=O)Nc2ccc(F)c([C@]3(C(F)F)COCC(N)=N3)c2)c(F)c1 [Example 181, 3-Fluoro-5-(2-methoxy-ethoxy)-pyridine-2-carboxylic acid [3-((R)-5-amino-3-difluoromethyl-3,6-dihydro-2H-[1,4]oxazin-3-yl)-4-fluoro-phenyl]-amide hydrochloride]"
7,171,"CC#CCOc1cnc(C(=O)Nc2ccc(F)c([C@]3(C(F)F)COCC(N)=N3)c2)c(C)n1 [Example 182, 5-But-2-ynyloxy-3-methyl-pyrazine-2-carboxylic acid [3-((R)-5-amino-3-difluoromethyl-3,6-dihydro-2H-[1,4]oxazin-3-yl)-4-fluoro-phenyl]-amide hydrochloride]"
8,4940,"COCc1cnc(C(=O)Nc2ccc(F)c([C@]3(C(F)F)COCC(N)=N3)c2)c(Cl)c1 [Example 183, 3-Chloro-5-methoxymethyl-pyridine-2-carboxylic acid [3-((R)-5-amino-3-di-fluoromethyl-3,6-dihydro-2H-[1,4]oxazin-3-yl)-4-fluoro-phenyl]-amide hydrochloride]"
9,47,"NC1=N[C@@](c2cc(NC(=O)c3ncc(OCF)cc3Cl)ccc2F)(C(F)F)COC1 [Example 184, 3-Chloro-5-fluoromethoxy-pyridine-2-carboxylic acid [3-((R)-5-amino-3-di-fluoromethyl-3,6-dihydro-2H-[1,4]oxazin-3-yl)-4-fluoro-phenyl]-amide hydrochloride]"

# Reference: US20140128385A1 (NOVARTIS AG, priority 2011, published 2014)
